In a melting point compilation (Tetko et al.; mined from patent text by program, amines drawn as free bases though some values may be those of a salt):

Row | SMILES | melting point [°C]
1 | CN(CCOc1ccc(C=C2SC(=O)NC2=O)cc1)C(=O)c1ccccc1 | 178 to 180
2 | CCOC(=O)C1=Cc2ccsc2S(=O)(=O)N1CCCOC | 82 to 83
3 | COc1ccccc1Oc1ccc(Br)cc1OC | 58 to 60
4 | NS(=O)(=O)c1ccc(-c2noc(-c3cnn4c(C(F)F)cc(-c5ccc(C(F)(F)F)cc5)nc34)n2)cc1 | 283
5 | COc1cccc(S(=O)(=O)N2CCc3cc(OCc4ccccc4)c(OC)cc3C2=O)c1 | 140 to 145
6 | COc1cc(OC)c(S(C)(=O)=O)cc1C(=O)O | 292
7 | CSC(=S)NN=Cc1nc(C)[nH]c1C | 279 to 281
8 | CN1C(=O)N(CC(=O)COC(C)(C)C)C(=O)C1(C)C | 61 to 63
9 | O=C1c2ccccc2C(=O)N1C/C=C/CCl | 108 to 110
10 | CC(C)(C)c1csc(-c2cc3cc(OCc4ccccc4Cc4nnn[nH]4)ccc3o2)n1 | 80 to 84
11 | COc1ccccc1-c1nc(-c2ccccc2)nc(-c2ccccc2O)n1 | 153 to 155
12 | COC(=O)CNC(=O)C1CSSC1 | 73 to 75
13 | O=C(O)C(Sc1nc2ccc(Cl)nc2s1)c1ccc(Cl)cc1 (stereo not drawn) | 144 to 146
14 | COC(=O)CC(=O)c1cc(OC)c2c(c1)OCO2 | 65.5 to 66.5
15 | COc1cc2c(cc1OC)-c1c(C)nc(Nc3c(C)cccc3C)n1CC2 | 234 to 236
16 | Nc1nc(Cl)c(Cl)nc1C=Nc1ccc(Cl)cc1 | 179 to 182
17 | COc1c(CCCI)cccc1OCc1coc(/C=C/c2ccccc2)n1 | 103 to 104
18 | COc1cccc2c1CCNCC2 | 44.3 to 45
19 | COc1ccc(C(=C/C=C/C(=O)Nc2ccc(Cc3cccnc3)cc2)c2ccc(OC)cc2)cc1 | 185 to 186
20 | COC(=O)Cc1c(Cl)ncnc1OC | 64
21 | Cc1ccc2cc(C)[nH]c2c1 | 74 to 76
22 | N#Cc1cnnc2ccccc12 | 140
23 | O=C(NCc1ccccc1)c1[nH]c2ccc(Cl)cc2c1S(=O)(=O)c1ccccc1 | 249 to 251
24 | Nc1nc2c(ncn2C2C=CC(CO)O2)c(=O)[nH]1 (stereo not drawn) | > 250
25 | CCOC(=O)CCC(=O)c1ccc(O)c(O)c1 | 116 to 117
26 | Cn1nc(C(F)F)c(CS(=O)(=O)C2=NOC(C)(C)C2)c1Cl | 78 to 79
27 | CCc1noc(-c2cn(-c3cccc(OCCc4ccccc4)c3)cn2)n1 | 124 to 125

Row | SMILES | melting point [°C]
28 | O=C(CCCCCCCCCC=C(F)F)Nc1ccccc1Cl | 54 to 55
29 | COc1ccc(C=CC(=O)C2C(=O)C=C(C)OC2=O)cc1 (stereo not drawn) | 205 to 207
30 | Cn1c(=O)[nH]c(=O)c2c1ncn2CC1OCCO1 | 276 to 278
31 | COc1ccc(-c2ccc3c(C(=O)c4ccn5c4CSC5c4cccnc4)c[nH]c3c2)cc1 (stereo not drawn) | 246 to 248
32 | COc1ccc(CCCNC(=O)N(C)O)cc1OC | 99 to 100
33 | CCCCNC(=O)NS(=O)(=O)CCc1c(C)nn(C)c1-n1ccc2cc(C(F)(F)F)cnc21 | 163 to 164
34 | CCCCc1nc(C(F)(F)CCC)nn1Cc1ccc(-c2ccccc2-c2nnn[nH]2)cc1 | 165 to 168
35 | COC(=O)N1CCc2onc(O)c2CC1 | 127 to 128
36 | CN(CCO)C(=O)Nc1ccc2c(c1)C(c1ccccc1F)=NCC(=O)N2C | 196 to 198
37 | COc1ccc(C2=CCCCc3cc(OCc4ccccc4)ccc32)cc1 | 76 to 78
38 | C[C@@H](n1ncn(-c2ccc(OC(F)(F)F)cc2)c1=O)[C@@]1(c2ccc(F)cc2F)CO1 | 103 to 106
39 | O=C(c1cccnc1)N1CCC(c2ccc(Br)cc2)=N1 | 117 to 119
40 | NC(=O)c1nn(-c2ccc3c(c2)OCO3)c2c1CCc1ccc(NC(=O)c3cc(Cl)ncc3Cl)cc1-2 | 292 to 293
41 | CCN(CC)C(=O)c1ccc(Cl)c(Cl)c1Br | 196
42 | CCOC(=O)C1(O)COc2cc3ccc(=O)[nH]c3cc2C1=O (stereo not drawn) | > 300
43 | Cc1c(-c2ccncc2)[nH]c(-c2ccncc2)c1C(=O)OCc1ccccc1 | 204 to 205
44 | CC(=O)c1ccc2c(c1)CCC1(CC2)CC1 | 56 to 58
45 | COC1CC(N)(C(=O)O)C2C(C(=O)O)C12 (stereo not drawn) | > 275
46 | Cn1c(=O)c(C#N)c(N2CCNCC2)c2cc(F)ccc21 | 211
47 | CC(C)(C)OC(=O)c1ccc(C=Cc2cnc3nc(N)nc(N)c3c2)cc1 | > 350
48 | CCOCCOc1ccc(-c2ccc3c(c2)C=C(C(=O)Nc2ccc(CN(C)C4CCOCC4)cc2)CCS3(=O)=O)cc1F | 212 to 214
49 | O=C(O)c1ccc(C(O)(C(F)(F)F)C(F)(F)F)cc1C(=O)O | 183 to 185
50 | Cc1cc2c(=O)[nH]c(CCl)nc2cc1Cl | 287 to 290
51 | C=CCC(O)(C(=O)c1ccc(C)cc1)c1ccc(C)cc1 (stereo not drawn) | 38 to 40
52 | NC(=O)NCCNc1n[nH]c2ncnc(Nc3cccc(Cl)c3)c12 | 212 to 214
53 | CC(=O)N(C)Cc1ccc(CCn2cnc3cc(-c4ccc(Cl)cc4)sc3c2=O)cc1 | 176 to 178

The next lines start with the values.

Row | melting point [°C] | SMILES
54 | 182 to 184 | CCCc1nn(C)c2c(=O)n(CCNc3ccc(C(C)=O)cc3)c(-c3ccc(OC)c(OC)c3)nc12
55 | 207 to 210 | CC(C)c1cccc(C(C)C)c1NC(=O)C(Br)c1ccccc1 (stereo not drawn)
56 | 232 to 233 | CN1CCN(CCC(=O)N2c3ccccc3C(=O)Nc3cccnc32)CC1
57 | 169 to 171 | CCOC(=O)c1nc2ccccc2n1[C@@H]1CC(C)(C)Oc2ccc(C#N)cc21
58 | 150 to 154 | CC(=O)Nc1ccc2c(c1)OCCN2C(C)=O
59 | 25 to 30 | CCOC(=O)C(=CNc1cccc2c1CCC2)C(=O)OCC
60 | 152 to 154 | COc1cc2ccn(C(=O)c3ccc(-c4ccccc4)c(C)c3)c2cc1OCCN(C)C
61 | 360 to 361 | NC(=O)c1nc(-c2cccc(O)c2)nc2c1[nH]c(=O)n2C1CCCC1
62 | 84 to 94 | CCOC(=O)c1c(N2CCN(C(=O)c3cccs3)CC2)c2cccnc2n(CCCN(C)C)c1=O
63 | 160 to 164 | C[C@H](NC(=O)[C@H](Cc1ccccc1)NC(=O)OCc1ccccc1)C(=O)O
64 | 144 to 145 | CCCCCCN1C(=O)C(=CC(=O)O)SC1=Nc1cccc2ccccc12
65 | 129 to 131 | Cc1c(-c2ccc(OC(C)C)cc2)n(Cc2ccc(OCCO)cc2)c2ccc(OCc3ccccc3)cc12
66 | 148 to 150 | COc1cc(OC)c(-c2cc3ccccc3n2C)cc1C=CC(=O)c1ccc(S(N)(=O)=O)cc1
67 | 207 to 209 | CC(C)(C)OC(=O)NC1COCCCC=CC2CC2(C(=O)NS(=O)(=O)C2CC2)NC(=O)C2CC(OC(=O)c3ccc(Oc4ccccc4)cc3)CN2C1=O (stereo not drawn)
68 | 148 | CC(C)c1ccc(S(=O)(=O)n2c(CCCC(=O)O)cc3cc(Cl)ccc32)cc1
69 | 73 to 77 | CCc1c(-c2ccc(CO)cc2)c2cc(C(C)=O)c3cccc1n32
70 | 163 to 165 | CC(=O)n1c2ccccc2c2nc3ccccc3cc21
71 | 160 to 170 | O=C(O)CCC(Cc1ccccc1)(C(=O)C=Cc1ccc(Cl)cc1)c1ccccc1 (stereo not drawn)
72 | 96.5 to 97.5 | N#CCc1nc(C(=O)c2ccccc2)no1
73 | 127 to 128 | COC(=O)C1=C(C)NC(C)=C(c2nc(CN(C)Cc3ccccc3)no2)C1c1cccc([N+](=O)[O-])c1 (stereo not drawn)
74 | 148 to 150 | Cc1cc(C)c2cccc(OCc3c(Cl)ccc(S(=O)(=O)N4CCC[C@H]4C(=O)N4CCN(C(=O)c5ccc(C(N)=NO)cn5)CC4)c3Cl)c2n1
75 | 114 to 116 | CCOC(=O)CS(=O)(=O)Nc1c(C(C)C)cccc1C(C)C
76 | 187 to 188 | Cc1cc(Br)cnc1CCCCNN1Cc2ccccc2S(=O)(=O)N1

Row | melting point [°C] | SMILES
77 | 150 to 151 | N[C@@H](CN1CCC(=C2c3ccccc3CCc3ccccc32)CC1)C(=O)O
78 | 125 to 126 | CCNc1nc(Nc2ccccc2)ncc1C=CC(=O)OCC
79 | 62 to 65 | CCOC(=O)C(C#N)(Cc1ccc(OC)c(OC)c1)C(OCC)OCC (stereo not drawn)
80 | 164 | CCOC(=O)C(=O)Nc1ccc(C#N)c2ccccc12
81 | 173 to 175 | CN(C)c1c([N+](=O)[O-])cc(-c2nc(Cl)c(CC#N)n2Cc2ccccc2)cc1[N+](=O)[O-]
82 | 158 to 159 | O=C1c2ccccc2C(=O)c2c(NCCN3CCOCC3)ccc(NCCN3CCOCC3)c21
83 | 76 to 79 | CSCC(O)COc1cccc2oc(C(=O)O)cc(=O)c12 (stereo not drawn)
84 | 174 to 177 | Cc1ccc(-n2nc(C(C)(C)C)cc2NC(=O)Nc2ccc(N(C)c3ccncc3)c3ccccc23)cc1
85 | 179 to 180 | CC(C)c1nc2c3c(c(C(=O)N(C)C)cc2n1C)CCC(c1ccccc1)O3 (stereo not drawn)
86 | 116 to 118 | CCC(CC)c1ccc(Cl)c2nc(Nc3ccc(OC)nc3OC)n(CCCCO)c12
87 | 102 to 106 | CC(C)C[C@@H](C#N)NC(=O)[C@@H]1CCCC[C@@H]1NC(=O)c1cc2ccccc2n1CC(C)(C)O
88 | 196 to 198 | CC(C)(CNS(=O)(=O)C(F)(F)F)Cn1c(=O)c2cccc3ncc(c1=O)n32
89 | 202 to 203 | CC(C)(C)c1cc(CCc2ccccc2NC(=O)NC2CCC(O)CC2)cc(C(C)(C)C)c1O (stereo not drawn)
90 | 194 to 196 | CC[C@H](C)[C@H](OCc1ccccc1)[C@H]1[C@H]([N+](=O)[O-])[C@H](C2CCCCC2)N[C@@H]1C(=O)O
91 | > 350 | Cc1cc(-n2cc(C#N)nc2C)cc2ccc(=O)[nH]c12
92 | 167 to 169 | COc1ccc2nccc(NC(=O)N3CCN(CC(=O)c4cnc5ccccc5n4)CC3)c2n1
93 | 67 to 77 | CC(C)CCC1CCCCc2c1oc(=O)c(C(c1ccccc1)C1CC1)c2O (stereo not drawn)
94 | 131 to 132 | CN(C)S(=O)(=O)n1c(C(=S)NC(=O)NS(=O)(=O)c2ccccc2Cl)nc2cc(Cl)c(Cl)cc21
95 | 177 to 183 | CC(O)c1cncc(C2(O)CCN(CC34CC(c5ccccc53)c3ccccc34)CC2)c1 (stereo not drawn)
96 | 234 to 236 | CC(=O)c1nc(-c2ccc(=O)n(C(C)C)n2)c(-c2ccccc2)nc1N
97 | 148 to 150 | O=C(NO)c1ccc(CNC(=O)c2[nH]c(-c3ccccc3)cc2-c2ccc(F)c(F)c2)cc1
98 | 183 to 185 | O=S(=O)(Nc1ccc2c(OCc3csc(C4COc5ccccc5O4)n3)cccc2c1)C(F)(F)F (stereo not drawn)
